What was measured:
rice (Diamant variety) = assay: Rice seed treatment with BHMPA salts: germinating power; assay type: in vivo; conditions: for Length, root / Length, root, + % to control / Length, sprout / Length, sprout, + % to control / Mass, dry, root / Mass, dry, root, + % to control / Mass, dry, sprout / Mass, dry, sprout, + % to control / Mass, wet, root / Mass, wet, root, + % to control / Mass, wet, sprout / Mass, wet, sprout, + % to control: rice seed treatment
Method in brief: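 Seeds (50 per Petri dish on two layers of filter paper) soaked 1 h in BHMPA or its Ca, Mg, Na, Co, Mn, Cu or Zn salts at 1·10^−6-1·10^−12%, with water controls. Germination energy read on day 4, germination on day 8 (wheat) or day 7 (rice, corn), as % means of four replicates. Germinating power taken as root and sprout length plus wet and dry mass per 100 seedlings.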

[1] = system: corn (Krasnodar 385 MV variety); assay: Corn seed treatment with BHMPA salts: germination energy and germination rate; assay type: in vivo
Method in brief: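 Corn, winter wheat and rice seeds (50 per dish, on filter paper) were soaked for 1 h in BHMPA or its metal salts at 1·10^−6-1·10^−12%, with water as control. Germination energy was read on day 4 and germination rate on day 8 for wheat and day 7 for rice and corn, following GOST 12038-84, as the mean of four replicates.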

[2] = comparison with Melaphen (Table XXXIII), solution 1 · 10^−9%
[3] = experimental solution 1 · 10^−6%
[4] = experimental solution 1 · 10^−7%
[5] = experimental solution 1 · 10^−8%
[6] = experimental solution 1 · 10^−9%
[7] = experimental solution 1 · 10^−10%
[8] = experimental solution 1 · 10^−11%
[9] = experimental solution 1 · 10^−12%
[10] = rice, vs control, 1·10^−9% solution
[11] = 1·10^−9% solution, listed as Zn
[12] = comparative study vs Melaphen, 1·10^−8% solution

SMILES: O=P([O-])(CO)CO.O=P([O-])(CO)CO.[Zn+2] [Zn-salt, Zinc BHMPA Salt]
- optimum concentration for treating rice seeds before sowing (rice (Diamant variety); rice): 1·10^−9%
- Length, root (rice (Diamant variety); [2]): 7.5 cm
- Length, root, + % to control (rice (Diamant variety); [2]): 56%
- Length, sprout (rice (Diamant variety); [2]): 4.8 cm
- Length, sprout, + % to control (rice (Diamant variety); [2]): 48%
- Mass, dry, root (rice (Diamant variety); [2]): 0.28 g/100 plantlings
- Mass, dry, root, + % to control (rice (Diamant variety); [2]): 33%
- Mass, dry, sprout (rice (Diamant variety); [2]): 0.32 g/100 plantlings
- Mass, dry, sprout, + % to control (rice (Diamant variety); [2]): 28%
- Mass, wet, root (rice (Diamant variety); [2]): 1.54 g/100 plantlings
- Mass, wet, root, + % to control (rice (Diamant variety); [2]): 57%
- Mass, wet, sprout (rice (Diamant variety); [2]): 2.57 g/100 plantlings
- Mass, wet, sprout, + % to control (rice (Diamant variety); [2]): 70%
- Length, root (rice (Diamant variety); [3]): 6.2 cm
- Length, root, + % to control (rice (Diamant variety); [3]): 15%
- Length, sprout (rice (Diamant variety); [3]): 2.6 cm
- Length, sprout, + % to control (rice (Diamant variety); [3]): 8%
- Mass, dry, root (rice (Diamant variety); [3]): 0.19 g/100 plantlings
- Mass, dry, root, + % to control (rice (Diamant variety); [3]): 12%
- Mass, dry, sprout (rice (Diamant variety); [3]): 0.23 g/100 plantlings
- Mass, dry, sprout, + % to control (rice (Diamant variety); [3]): 4.5%
- Mass, wet, root (rice (Diamant variety); [3]): 1.04 g/100 plantlings
- Mass, wet, root, + % to control (rice (Diamant variety); [3]): 24%
- Mass, wet, sprout (rice (Diamant variety); [3]): 1.81 g/100 plantlings
- Mass, wet, sprout, + % to control (rice (Diamant variety); [3]): 24%
- Length, root (rice (Diamant variety); [4]): 6.6 cm
- Length, root, + % to control (rice (Diamant variety); [4]): 22%
- Length, sprout (rice (Diamant variety); [4]): 2.8 cm
- Length, sprout, + % to control (rice (Diamant variety); [4]): 17%
- Mass, dry, root (rice (Diamant variety); [4]): 0.22 g/100 plantlings
- Mass, dry, root, + % to control (rice (Diamant variety); [4]): 29%
- Mass, dry, sprout (rice (Diamant variety); [4]): 0.27 g/100 plantlings
- Mass, dry, sprout, + % to control (rice (Diamant variety); [4]): 23%
- Mass, wet, root (rice (Diamant variety); [4]): 1.21 g/100 plantlings
- Mass, wet, root, + % to control (rice (Diamant variety); [4]): 44%
- Mass, wet, sprout (rice (Diamant variety); [4]): 2.10 g/100 plantlings
- Mass, wet, sprout, + % to control (rice (Diamant variety); [4]): 44%
- Length, root (rice (Diamant variety); [5]): 6.8 cm
- Length, root, + % to control (rice (Diamant variety); [5]): 26%
- Length, sprout (rice (Diamant variety); [5]): 3.1 cm
- Length, sprout, + % to control (rice (Diamant variety); [5]): 29%
- Mass, dry, root (rice (Diamant variety); [5]): 0.24 g/100 plantlings
- Mass, dry, root, + % to control (rice (Diamant variety); [5]): 41%
- Mass, dry, sprout (rice (Diamant variety); [5]): 0.28 g/100 plantlings
- Mass, dry, sprout, + % to control (rice (Diamant variety); [5]): 27%
- Mass, wet, root (rice (Diamant variety); [5]): 1.29 g/100 plantlings
- Mass, wet, root, + % to control (rice (Diamant variety); [5]): 53.5%
- Mass, wet, sprout (rice (Diamant variety); [5]): 2.27 g/100 plantlings
- Mass, wet, sprout, + % to control (rice (Diamant variety); [5]): 55%
- Length, root (rice (Diamant variety); [6]): 7.0 cm
- Length, root, + % to control (rice (Diamant variety); [6]): 30%
- Length, sprout (rice (Diamant variety); [6]): 3.6 cm
- Length, sprout, + % to control (rice (Diamant variety); [6]): 50%
- Mass, dry, root (rice (Diamant variety); [6]): 0.27 g/100 plantlings
- Mass, dry, root, + % to control (rice (Diamant variety); [6]): 59%
- Mass, dry, sprout (rice (Diamant variety); [6]): 0.33 g/100 plantlings
- Mass, dry, sprout, + % to control (rice (Diamant variety); [6]): 50%
- Mass, wet, root (rice (Diamant variety); [6]): 1.32 g/100 plantlings
- Mass, wet, root, + % to control (rice (Diamant variety); [6]): 57%
- Mass, wet, sprout (rice (Diamant variety); [6]): 2.31 g/100 plantlings
- Mass, wet, sprout, + % to control (rice (Diamant variety); [6]): 58%
- Length, root (rice (Diamant variety); [7]): 6.9 cm
- Length, root, + % to control (rice (Diamant variety); [7]): 28%
- Length, sprout (rice (Diamant variety); [7]): 3.2 cm
- Length, sprout, + % to control (rice (Diamant variety); [7]): 33%
- Mass, dry, root (rice (Diamant variety); [7]): 0.25 g/100 plantlings
- Mass, dry, root, + % to control (rice (Diamant variety); [7]): 47%
- Mass, dry, sprout (rice (Diamant variety); [7]): 0.31 g/100 plantlings
- Mass, dry, sprout, + % to control (rice (Diamant variety); [7]): 41%
- Mass, wet, root (rice (Diamant variety); [7]): 1.26 g/100 plantlings
- Mass, wet, root, + % to control (rice (Diamant variety); [7]): 50%
- Mass, wet, sprout (rice (Diamant variety); [7]): 2.17 g/100 plantlings
- Mass, wet, sprout, + % to control (rice (Diamant variety); [7]): 49%
- Length, root (rice (Diamant variety); [8]): 6.7 cm
- Length, root, + % to control (rice (Diamant variety); [8]): 24%
- Length, sprout (rice (Diamant variety); [8]): 2.8 cm
- Length, sprout, + % to control (rice (Diamant variety); [8]): 17%
- Mass, dry, root (rice (Diamant variety); [8]): 0.22 g/100 plantlings
- Mass, dry, root, + % to control (rice (Diamant variety); [8]): 29%
- Mass, dry, sprout (rice (Diamant variety); [8]): 0.29 g/100 plantlings
- Mass, dry, sprout, + % to control (rice (Diamant variety); [8]): 32%
- Mass, wet, root (rice (Diamant variety); [8]): 1.19 g/100 plantlings
- Mass, wet, root, + % to control (rice (Diamant variety); [8]): 42%
- Mass, wet, sprout (rice (Diamant variety); [8]): 2.09 g/100 plantlings
- Mass, wet, sprout, + % to control (rice (Diamant variety); [8]): 43%
- Length, root (rice (Diamant variety); [9]): 5.9 cm
- Length, root, + % to control (rice (Diamant variety); [9]): 9%
- Length, sprout (rice (Diamant variety); [9]): 2.7 cm
- Length, sprout, + % to control (rice (Diamant variety); [9]): 12.5%
- Mass, dry, root (rice (Diamant variety); [9]): 0.19 g/100 plantlings
- Mass, dry, root, + % to control (rice (Diamant variety); [9]): 12%
- Mass, dry, sprout (rice (Diamant variety); [9]): 0.25 g/100 plantlings
- Mass, dry, sprout, + % to control (rice (Diamant variety); [9]): 14%
- Mass, wet, root (rice (Diamant variety); [9]): 1.05 g/100 plantlings
- Mass, wet, root, + % to control (rice (Diamant variety); [9]): 25%
- Mass, wet, sprout (rice (Diamant variety); [9]): 1.70 g/100 plantlings
- Mass, wet, sprout, + % to control (rice (Diamant variety); [9]): 16%
- dry mass of the roots increased by (rice (Diamant variety); [10]): 59%
- dry mass of the sprouts increased by (rice (Diamant variety); [10]): 50%
- length of the root increased by (rice (Diamant variety); [10]): 30%
- length of the sprout increased by (rice (Diamant variety); [10]): 50%
- wet mass of the roots increased by (rice (Diamant variety); [10]): 57%
- wet mass of the sprouts increased by (rice (Diamant variety); [10]): 58%
- Germination energy ([1]; 1·10^−6% solution): 77.7%
- Germination rate ([1]; 1·10^−6% solution): 80.0%
- Germination energy ([1]; 1·10^−7% solution): 84.0%
- Germination rate ([1]; 1·10^−7% solution): 86.7%
- Germination energy ([1]; 1·10^−8% solution): 88.3%
- Germination rate ([1]; 1·10^−8% solution): 90.8%
- Germination energy ([1]; 1·10^−9% solution): 88.3%
- Germination rate ([1]; 1·10^−9% solution): 90.8%
- Germination energy [1, 11]: 84.2%
- Germination rate [1, 11]: 86.7%
- Germination energy ([1]; 1·10^−10% solution): 82.3%
- Germination rate ([1]; 1·10^−10% solution): 85.0%
- Germination energy ([1]; 1·10^−11% solution): 80.7%
- Germination rate ([1]; 1·10^−11% solution): 83.3%
- Germination energy ([1]; 1·10^−12% solution): 79.0%
- Germination rate ([1]; 1·10^−12% solution): 81.7%
- Germination energy [1, 12]: 88.0%
- Germination rate [1, 12]: 95.7%

From US10781224B2, “Bis(oxymethyl)phosphinic acid and biogenic metal salts thereof as regulators of plant growth and development” (priority 2016, dated 2020)
